From patent US20090137538A1, “METHOD OF TREATING ATROPHIC VAGINITIS” (priority 2006, published 2009)
Like-named read-outs stand apart in the source and are kept apart here.

Key:
[1] = test system: lactobacilli; details: cited from earlier work
[2] = test system: urinary urgency, urge incontinence, nocturia; details: vaginal therapy; cited from earlier work
[3] = test system: women with recurrent urinary tract infections; details: cited from earlier work
[4] = test system: endometrium; details: oral 2 mg per day, average three weeks prior to hysterectomy; cited from earlier work
[5] = test system: SIV; details: vaginal transmission; base cream alone 75%; cited from earlier work
[6] = biological target: T1, sex hormone-binding globulin (SHBG) (Homo sapiens, UniProt P04278); details: unlike estradiol and estrone; cited from earlier work
T1 sequence (P04278 30-402): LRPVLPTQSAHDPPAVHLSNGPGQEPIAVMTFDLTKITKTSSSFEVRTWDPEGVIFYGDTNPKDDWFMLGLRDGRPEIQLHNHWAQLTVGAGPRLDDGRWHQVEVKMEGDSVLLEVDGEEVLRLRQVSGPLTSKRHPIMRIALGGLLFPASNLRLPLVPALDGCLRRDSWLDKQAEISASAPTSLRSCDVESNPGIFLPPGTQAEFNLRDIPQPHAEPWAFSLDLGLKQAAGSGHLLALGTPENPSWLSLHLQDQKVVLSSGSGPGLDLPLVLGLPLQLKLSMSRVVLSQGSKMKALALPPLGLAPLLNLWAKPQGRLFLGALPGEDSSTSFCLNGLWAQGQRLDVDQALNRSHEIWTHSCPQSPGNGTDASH

[7] = test system: menopausal women; details: cited from earlier work
[8] = relative risk ratio vs placebo, cited from earlier work
[9] = vaginal ring, after vaginal administration; cited from earlier work
[10] = cited from earlier work
[11] = cited from earlier work; remark: listed apart in the source
[12] = cited from earlier work; remark: listed apart in the source
[13] = test system: endometrium; assay: Example 6: endometrial biopsy at 6 months; type: in vivo, human; details: vaginal dose of 30 mg in the combination suppository, biopsy after 6 months
Text: Five patients underwent an endometrial biopsy (EMB) after 6 months of treatment.

[14] = dose of 0.5 mg, menopausal patients

## C[C@]12CC[C@@H]3c4ccc(O)cc4CC[C@H]3[C@@H]1C[C@@H](O)[C@@H]2O [Estriol, 16-alpha, 17-beta, estra 1,3,5 (10) triene 3, 16, 17-triol]
[1]; after one month, no patients receiving placebo
  patients in whom lactobacilli reappeared: 61%
[1]; [14]
  restoration of the population of lactobacilli: failed to restore
[2]
  alleviating nocturia: 54%
  alleviating urge incontinence: 58%
  alleviating urinary urgency: 56%
[3]
  reduction of the requirement for antibiotics compared to those unsupplemented: up to 16 times
[4]
  women with hyperplastic changes on histological exam of the uteri: 70.8%
[5]
  SIV infection rate: 8.3%
[6]
  binding to sex hormone-binding globulin: does not bind
[7]; [14]
  reduction of the vaginal pH: failed to reduce
[7]; menopausal women, ovules 1 mg, 24 weeks
  vaginal pH after therapy: 4.12

## CCN(CC)CC#CCOC(=O)C(O)(c1ccccc1)C1CCCCC1 (stereo not drawn) [Oxybutynin IR, Oxybutynin]
[8]; dose 8.8-15 mg
  Any AE*: 1.4
  Blurred Vision: 1.7
  Dry Mouth: 3.3
  Dyspepsia: 3.3
  Urinary Retention*: 5.6

## O=C(O[C@H]1C[C@H]2CC[C@@H](C1)[N+]21CCCC1)C(O)(c1ccccc1)c1ccccc1 [Trospium]
[8]; dose 40 mg
  Any AE*: 1.5
  Constipation: 2.1
  Dry Mouth: 3.2

## C#C[C@]1(O)CC[C@H]2[C@@H]3CCc4cc(O)ccc4[C@H]3CC[C@@]21C [ethinylestradiol]
[9]
  bioavailability: approximately 55.6%

## C[C@]12CC[C@@H]3c4ccc(O)cc4CC[C@H]3[C@@H]1CC[C@@H]2O [estradiol]
[10]; same dose
  serum estradiol levels after vaginal versus oral administration: ten-fold higher
[10]; same exact dose
  endometrial concentrations after vaginal versus oral administration: seventy-fold higher

## CC(=O)O[C@]1(C(C)=O)CC[C@H]2[C@@H]3C[C@H](C)C4=CC(=O)CC[C@]4(C)[C@H]3CC[C@@]21C [MPA, Medroxyprogesterone Acetate]
[11]; in vivo
  Lipid Profile: MPA: adversely effects lipid profile and negates the beneficial
  Liver function: MPA: contraindicated in patients with liver dysfunction.
  Sleep and Mood: MPA: can cause insomnia, mental depression, and anxiety.

## CC(=O)[C@H]1CC[C@H]2[C@@H]3CCC4=CC(=O)CC[C@]4(C)[C@H]3CC[C@]12C [Progesterone, pregn-4-ene-3, 20-dione]
[12]; 25 mg vaginal suppository
  serum concentration: 7.27 ng/mL
[12]; 50 mg vaginal suppository
  serum concentration: 8.84 ng/mL
[11]; MP-containing HRT compared with MPA-containing regimen
  Quality of life/menopausal symptoms: containing HRT experienced significant improvement in symptoms
[11]; in vivo
  Cardiovascular Events: MP: has antihypertensive action and can be safely used to treat
  Lipid Profile: MP: does not negate the beneficial effects of estrogen and modestly
  Liver function: MP: does not effect liver enzymes or cause liver related side
  Sleep and Mood: MP: improves the quality of sleep and has sedative properties.
[13]
  effect on estrogen stimulated postmenopausal endometrium: anti-proliferative effect

## NC(=O)C(c1ccccc1)(c1ccccc1)[C@@H]1CCN(CCc2ccc3c(c2)CCO3)C1 [Darifenacin]
[8]; dose 7.5 mg
  Any AE*: 1.2
  Constipation: 2.2
  Dry Mouth: 2.2
[8]; dose 15 mg
  Any AE*: 1.4
  Constipation: 2.4
  Dry Mouth: 2.9
